Data: patent US12374538B2, “Systems and methods for quantifying an analyte extracted from a sample” (Purdue Research Foundation, priority 2014, dated 2025)
“And” between values parts separate entries of the source, which are not always exact repeats. Equal entries are not always repeated.

System: cholinesterase (ChE)
Conditions: human whole blood diluted 10 times, acetylthiocholine 1.8 mg/mL, 5 min incubation in capillary, vs control
Method: For testing of a particular solvent, 5 μL blood sample (diluted) was injected into the capillary with the extraction solvent plug immediately after the mixing the acetylthiocholine into the blood. After the 5 min incubation in capillary, the TCh/ATch ratio was measured using SFME nanoESI MS. For the control, 5 min after the mixing acetylthiocholine into the diluted blood, the sample was taken and analyzed immediately using SFME nanoESI MS with ethyl acetate as the extraction phase. Spray voltage of 1.5 kV was used for nanoESI.
SFME-nanoESI was applied for monitoring the enzymatic activity of cholinesterase (ChE) in whole blood samples. […] The blood sample was diluted 10 times to slow down the reaction rate as well as to facilitate the slug flows for SFME. The substrate acetylthiocholine iodine was added into the diluted blood sample at a concentration of 1.8 mg/mL, and then 5 μL sample was taken immediately and injected into the capillary with 5 μL extraction phase. The capillary with the sample and the extraction solvent was left in room temperature 25° C. for incubation. The SFME-nanoESI could be performed repeatedly on the same sample and the ratio of the substrate ATCh and the reaction product TCh could be monitored as a function of time to characterize the enzymatic activity of the ChE. […]

Row | Compound | reduction of ChE activity due to contact with extraction solvent
1 | CCOC(C)=O [ethyl acetate] | minimal
2 | ClC(Cl)Cl [chloroform] | more than 60%

System: not given
Conditions: log([solute]octanol/[solute]water), un-ionized compound; cited from earlier work

Row | Compound | Log P (partition coefficient)
3 | CN1[C@H]2CC[C@@H]1[C@@H](C(=O)O)[C@@H](OC(=O)c1ccccc1)C2 [benzoylecgonine] | −0.59 and −0.6
4 | CN1C(=O)CC[C@H]1c1cccnc1 [cotinine] | 0.07
5 | N[C@@H](Cc1ccccc1)C(=O)O [phenylalanine] | −1.38
6 | Cc1ccc(/N=C/N(C)/C=N/c2ccc(C)cc2C)c(C)c1 [amitraz] | 5
